Test results as given in PMC1968602 (British Journal of Cancer, 1993).
Where “and” joins values, the source holds several entries; their conditions need not be identical. Equal values may be shown once. Read-outs that look alike come from different tables or passages of the source.

Assays:
[1] = ref Negoro et al., 1991a, cited from earlier work; for AUC of CPT-11: single agent weekly infusion
[2] = tested on: patients with advanced lung cancer
From the text: All subjects gave written informed consent to the study. […] The study was approved in advance by this hospital's Institu- tional Review Board. […] Patients who stabilised or improved received at least a second course while patients with obvious evidence of disease progression were removed from the study. Before the next course was started, the leukocyte count had to be at least 4,000fil-', and the platelet count had to be at least 100,00011-. If more than 6 weeks passed from the time of the last treatment before these criteria were satisfied, the patients were removed from the study. No intrapatient dose escalation was performed. Once the maximum tolerated dose was reached (90 mg m-2), five additional patients were treated at the preceding dose level of 80mgm2. Evaluation The stage of disease was determined by a complete medical history and physical examination, routine chest radiography, whole-lung tomography, bone scintiscanning, computed tomography of the head, chest, and abdomen, and fiberoptic bronchoscopy. Bone marrow aspiration was also performed in SCLC patients. […] Prior to the first course of treatment, a complete blood count (includ- ing a differential white cell count and platelet count), biochemistry tests (renal and hepatic function, and elec- trolytes), and urinalysis were performed. Then the blood count, biochemistry tests, urinalysis, and chest X-rays were repeated at least once a week after this initial evaluation. Other investigations were repeated as necessary to evaluate marker lesions. After the completion of chemotherapy, each patient was restaged with all the tests used during the initial work-up. The eligibility, evaluability and response of each patient were assessed by extramural reviewers. […] The duration of each response was defined as the number of days from the documentation of response until tumour progression. ECOG common toxicity criteria were used to grade organ damage. The maximum tolerated dose was defined as the dose causing grade 3-4 nonhematologic toxicity (except nausea and vomiting) in at least one-third of the cycles and/or grade 3-4 hematologic toxicity in at least two-third of the cycles included at that level. […] The statistical significance of differ- ences in peak plasma concentrations (Cmax) was determined using unpaired, two-tailed Student's t test. Other statistical analysis was performed using Chi-square test or Fisher's exact test. A P value of less than 0.05 was considered to be statistically significant.

advanced lung cancer = test: Tumour response (World Health Organization criteria) to CPT-11 plus cisplatin; assay type: in vivo, human
Experimental: (§1) All subjects gave written informed consent to the study. […] No intrapatient dose escalation was performed. […] Bone marrow aspiration was also performed in SCLC patients. […] Arrows indicate the com- pletion of infusion.

[3] = Plasma pharmacokinetics of CPT-11 and SN-38 (HPLC), day 8 of first cycle
Experimental: as §1

[4] = tested on: patients with advanced NSCLC; settings: ref Masuda et al., 1992b, cited from earlier work
[5] = tested on: diarrhea induced by this combination regimen; test: Antidiarrheal treatment of diarrhea induced by CPT-11 plus cisplatin; assay type: in vivo, human; settings: for response of grade 3 diarrhea to antidiarrheal agent: diarrhea at CPT-11 90 mg m-2 plus cisplatin 60 mg m-2
Experimental: as §1

[6] = CPT-11 60 mg m-2 plus cisplatin 60 mg m-2, 3 patients
[7] = CPT-11 80 mg m-2 plus cisplatin 60 mg m-2
[8] = CPT-11 80 mg m-2 plus cisplatin 60 mg m-2, 8 patients
[9] = CPT-11 90 mg m-2 plus cisplatin 60 mg m-2
[10] = CPT-11 plus cisplatin 60 mg m-2, 28-day cycle
[11] = all dose levels, CPT-11 plus cisplatin 60 mg m-2
[12] = dose level 1 (CPT-11 60 mg m-2), individual responders
[13] = dose level 2 (CPT-11 80 mg m-2)
[14] = dose level 3 (CPT-11 90 mg m-2), one responder

## CCc1c2c(nc3ccc(OC(=O)N4CCC(N5CCCCC5)CC4)cc13)-c1cc3c(c(=O)n1C2)COC(=O)[C@]3(O)CC [CPT-11, Irinotecan]
[1]; 50 mg m-2
  AUC of CPT-11: 2.97 ytg ml-' x hours
[1]; 100 mg m-2
  AUC of CPT-11: 6.37 ytg ml-' x hours
[1]; 125 mg m-2
  AUC of CPT-11: 9.17 ytg ml-' x hours
[1]; 150 mg m-2
  AUC of CPT-11: 11.29 ytg ml-' x hours
[1]; weekly intravenous infusion
  dose intensity achieved as a single agent: 100 mg m-2 per week
[2]; CPT-11 60 mg m-2 plus cisplatin 60 mg m-2
  Grade 3 leukopenia, percentage of courses: 33%
[2]; [6]
  ECOG grade 3 or 4 diarrhea: number of patients exhibiting toxicity in the first course: 0
  ECOG grade 3 or 4 leukopenia: number of patients exhibiting toxicity in the first course: 2
[2]; CPT-11 60 mg m-2 plus cisplatin 60 mg m-2, 9 courses
  ECOG grade 3 or 4 diarrhea: no. of courses exhibiting toxicity in all courses: 0
[2]; [7]
  Grade 3 leukopenia, percentage of courses: 15%
  grade 4 diarrhea: no grade 4 diarrhea
[2]; [8]
  ECOG grade 3 or 4 diarrhea: number of patients exhibiting toxicity in the first course: 2
  ECOG grade 3 or 4 leukopenia: number of patients exhibiting toxicity in the first course: 2
[2]; CPT-11 80 mg m-2 plus cisplatin 60 mg m-2, 20 courses
  ECOG grade 3 or 4 diarrhea: no. of courses exhibiting toxicity in all courses: 3
[2]; CPT-11 80 mg m-2 plus cisplatin 60 mg m-2, forced cessation of CPT-11 on day 15
  skin rash (grade 1), number of patients: one
[2]; CPT-11 80 mg m-2 plus cisplatin 60 mg m-2, three of 20 cycles
  grade 3 diarrhea, percentage of cycles: 15%
[2]; CPT-11 80 mg m-2 plus cisplatin 60 mg m-2, two of eight patients
  grade 3 diarrhea, percentage of patients: 25%
[2]; CPT-11 90 mg m-2 dose level plus cisplatin 60 mg m-2
  dose-limiting toxicity: diarrhea
[2]; [9]
  Grade 3 leukopenia, percentage of courses: 0%
  duration of grade 3 diarrhea: 2 to 3 weeks
  grade 4 diarrhea: no grade 4 diarrhea
[2]; CPT-11 90 mg m-2 plus cisplatin 60 mg m-2, 3 patients
  ECOG grade 3 or 4 leukopenia: number of patients exhibiting toxicity in the first course: 0
[2]; CPT-11 i.v. days 1, 8, 15 plus cisplatin 60 mg m-2 day 1, every 28 days
  maximum tolerated dose of CPT-11: 90 mg m-2
[2]; [10]
  leukocyte nadir: ~21 days
  recovery from leukocyte nadir in most patients: ≤ 29 days
[2]; CPT-11 days 1, 8, 15 plus cisplatin day 1 at 4-week intervals
  recommended dose for Phase II studies: 80 mg m-2
[2]; all dose levels, CPT-11 60-90 mg m-2 plus cisplatin 60 mg m-2, 14 patients
  Grade 3 leukopenia, number of patients: five
[2]; all dose levels, CPT-11 60-90 mg m-2 plus cisplatin 60 mg m-2, 33 courses
  Grade 3 leukopenia, number of cycles: six
[2]; [11]
  Hematologic toxicity: relatively mild
  grade 4 leukopenia, patients: none
  hepatic, renal, or pulmonary toxicity: no evidence
[2]; all dose levels, 10 of 33 courses
  Grade 3 nausea and vomiting, percentage of courses: 30%
[2]; all dose levels, 15 of 33 courses
  Grade 2 alopecia, percentage of courses: 45%
[2]; all dose levels, seven of 33 courses
  Transient eosinophilia ( > 10%), percentage of courses: 21%
[2]; all dose levels, two occasions in 33 courses
  Grade 3 anaemia, percentage of courses: 6%
Advanced lung cancer; all 14 patients
  patients showing disease progression: none
  patients showing no change: Eight
Advanced lung cancer; all 14 patients, CPT-11 60-90 mg m-2 plus cisplatin 60 mg m-2
  overall response rate: 43%
Advanced lung cancer; [12]
  Response duration: 85 days and 170 days
  Time to remission: 42 days and 44 days
Advanced lung cancer; dose level 1: CPT-11 60 mg m-2 plus cisplatin 60 mg m-2, two of three patients
  No. of responders (%), response rate: 67%
Advanced lung cancer; [13]
  Response duration, median (range): 158 (92-208) days
  Time to remission, median (range): 41 (30-42) days
Advanced lung cancer; dose level 2: CPT-11 80 mg m-2 plus cisplatin 60 mg m-2, three of eight patients
  No. of responders (%), response rate: 38%
Advanced lung cancer; [14]
  Response duration: 98 days
  Time to remission: 30 days
Advanced lung cancer; dose level 3: CPT-11 90 mg m-2 plus cisplatin 60 mg m-2, one of three patients
  No. of responders (%), response rate: 33%
Advanced lung cancer; five of 14 patients
  partial responses: 36%
Advanced lung cancer; four of 12 patients
  response rate for NSCLC: 33%
Advanced lung cancer; one of 14 patients
  complete response: 7%
Advanced lung cancer; one of seven patients
  complete response, stage IIIB disease: 14%
Advanced lung cancer; seven patients
  overall response rate, stage IIIB disease: 43%
Advanced lung cancer; three of seven patients
  partial response, stage IV disease: 43%
Advanced lung cancer; total, all dose levels
  Response duration, median (range): 128 (85-208) days
  Time to remission, median (range): 42 (30-44) days
Advanced lung cancer; two of seven patients
  partial responses, stage IIIB disease: 29%
Advanced lung cancer; two of two patients
  response rate for SCLC: 100%
[3]; after completion of infusion, two-compartment model
  Elimination of CPT-11 from plasma: biphasic
[4]; CPT-11 days 1, 8, 15 combined with 80 mg m-2 cisplatin day 1, 4-week intervals, advanced NSCLC
  response rate: 54%
[4]; combined with 80 mg m-2 cisplatin
  dose-limiting toxicities: leukopenia and diarrhea
[4]; in combination with 80 mg m-2 of cisplatin, days 1, 8, 15
  recommended dose of CPT-11: 60 mg m-2

## CCc1c2c(nc3ccc(O)cc13)-c1cc3c(c(=O)n1C2)COC(=O)[C@]3(O)CC [SN-38, 7-ethyl-10-hydroxycamptothecin]
[1]; single-agent CPT-11 50 mg m-2
  AUC of SN-38: 117 ng ml-1 x hours
[1]; single-agent CPT-11 125 mg m-2
  AUC of SN-38: 252 ng ml-1 x hours
[3]; human, in vivo, 80 mg
  AUC: 0.216 µg·h/mL
[3]; human, in vivo, 90 mg
  AUC: 0.34 µg·h/mL
  SN-38 terminal half-life, mean (s.d.): 22.13 ? 13.28 h
  half-life: 22.1 ± 13.3 h

## CN1[C@@H]2CC[C@H]1C[C@@H](OC(=O)C(CO)c1ccccc1)C2 (stereo partly drawn) [atropine]
[5]
  response of grade 3 diarrhea to antidiarrheal agent: refractory

## COc1ccc2c3c1O[C@H]1[C@@H](O)C=C[C@H]4[C@@H](C2)N(C)CC[C@@]341 [codeine phosphate]
[5]
  response of grade 3 diarrhea to antidiarrheal agent: resistant

## CN1[C@@H]2C[C@@H](OC(=O)[C@H](CO)c3ccccc3)C[C@H]1[C@@H]1O[C@@H]12 [scopolamine]
[5]
  response of grade 3 diarrhea to antidiarrheal agent: refractory

## albumin tannate
[5]
  response of grade 3 diarrhea to antidiarrheal agent: refractory

## sandostatin
[5]; 50-100 ug subcutaneously t.i.d. for at least 2 days, three patients
  effect on grade 3 diarrhea induced by CPT-11 plus cisplatin: ineffective
